Experimental data reported in PMC5527309, “Curative Treatment of Severe Gram-Negative Bacterial Infections by a New Class of Antibiotics Targeting LpxC” (mBio, 2017).
Values after ≈ are worked out from the molar mass of the structure shown. Where two headings read alike, the source gives them in different places.

Experiments:
Y. pestis [1] = conditions: cited from earlier work
Y. pestis [2] = conditions: mouse, in vivo
OF-1 female mice = experiment: Tolerability study, 5-day intravenous regimen; conditions: mouse
E. coli = experiment: microbe, parasite or virus in culture; format: cell-based, Escherichia coli; conditions: for MIC: read-out: MIC against E. coli
Y. pestis CO92 = format: cell-based, Yersinia pestis
[3] = In vivo pharmacokinetics, single intravenous dose; conditions: for half-life: female, OF-1, mouse, plasma, iv
[4] = Microsomal stability analysis; conditions: mouse, liver microsomes, pH 7.4
M. morganii = experiment: microbe, parasite or virus in culture; format: cell-based, Morganella morganii
P. mirabilis = experiment: microbe, parasite or virus in culture; format: cell-based, Proteus mirabilis
Salmonella spp = experiment: microbe, parasite or virus in culture; format: cell-based, Salmonella enterica
Yersinia spp. = experiment: microbe, parasite or virus in culture; format: cell-based, Y. enterocolitica and Y. pseudotuberculosis
Enterobacteriaceae = experiment: organism not typed; format: cell-based
S. marcescens = experiment: microbe, parasite or virus in culture; format: cell-based, Serratia marcescens
C. freundii = experiment: microbe, parasite or virus in culture; format: cell-based, Citrobacter freundii
Enterobacter spp. = experiment: microbe, parasite or virus in culture; format: cell-based
Shigella spp. = experiment: microbe, parasite or virus in culture; format: cell-based
K. pneumoniae = experiment: microbe, parasite or virus in culture; format: cell-based, Klebsiella pneumoniae
C. koseri = experiment: microbe, parasite or virus in culture; format: cell-based, Citrobacter koseri
A. baumannii = experiment: microbe, parasite or virus in culture; format: cell-based, Acinetobacter baumannii
P. aeruginosa = experiment: microbe, parasite or virus in culture; format: cell-based, Pseudomonas aeruginosa

O=C(O)c1cn(C2CC2)c2cc(N3CCNCC3)c(F)cc2c1=O [ciprofloxacin]
MIC (Y. pestis [1]): 0.03 µg/mL (≈ 0.0905 µM)

C[C@H]1c2cccc(O)c2C(=O)C2=C(O)[C@]3(O)C(=O)C(C(N)=O)=C(O)[C@@H](N(C)C)[C@@H]3[C@@H](O)[C@@H]21 [doxycycline, reference compound]
survivors at day 21 postchallenge (Y. pestis [2]): 14 out of 15
bacterial load in skin, lymph nodes, spleen, and blood of survivors (Y. pestis [2]; iv, 50 mg/kg): sterile
MIC (Y. pestis [1]): 0.5 µg/mL (≈ 1.13 µM)

CC(O)(C(F)F)C(NC(=O)c1ccc(C#CC#Cc2ccc(N)cc2)cc1)C(=O)NO (stereo not shown) [LPC-058]
renal function (blood urea nitrogen) and hepatic function (OF-1 female mice; 10 mg/kg q8h, 5 days): normal
tissue damage (OF-1 female mice; 10 mg/kg q8h, 5 days): no tissue damage was detected
histology (hematoxylin-eosin, 5-µm sections) (OF-1 female mice; 40 mg/kg q12h, 5 days): accumulation of polymorphonuclear cells in the lung and large intestine
liver toxicity (blood alanine aminotransferase level) (OF-1 female mice; 40 mg/kg q12h, 5 days): liver toxicity
plasma protein levels at the end of the 5-day regimen (OF-1 female mice; 5-day regimen): Low plasma protein levels
appearance of diarrhea after the first injection (OF-1 female mice; 5-day regimen, regardless of regimen (10 mg/kg q8h, 20 mg/kg q12h, 40 mg/kg q12h)): 3 days
colonization of the lymph nodes, spleen, and blood relative to nontreated controls (Y. pestis [2]; iv, 10 mg/kg): significantly (P < 0.02) lower colonization
survival rate (Y. pestis [2]; iv, 10 mg/kg): ≥ 80%
MIC (E. coli; Escherichia coli): 0.025 µg/mL (≈ 0.0585 µM)
type of antibacterial effect (kill curve) (Y. pestis CO92): bacteriostatic effect
AUC greater than AUC of LPC-069 ([3]; LPC-058 single dose 20 mg/kg versus LPC-069 single dose 40 mg/kg, mouse): approximately 10 fold
half-life ([3]; 20 mg/kg): 53 min
tissue distribution volume ([3]; mouse, single intravenous dose of 20 mg/kg): 1.1 L/kg
half-life at 1 µM [4]: 95 min
microsomal CLint at 1 µM [4]: 24 µL/min/mg

CC(O)(C(F)F)C(NC(=O)c1ccc(C#Cc2ccc(CN3CCOCC3)cc2)cc1)C(=O)NO (stereo not shown) [LPC-069]
diarrhea and detectable toxicity (OF-1 female mice; 5 days, any of the regimens tested (including 200 mg/kg q8h)): did not elicit any diarrhea or detectable toxicity
MIC Range (M. morganii): 0.2 to 1.6 µg/mL
MIC50 (M. morganii; Morganella morganii): 0.2 µg/mL (≈ 0.41 µM)
MIC90 (M. morganii; Morganella morganii): 0.8 µg/mL (≈ 1.64 µM)
MIC Range (P. mirabilis): 0.2 to 0.8 µg/mL
MIC50 (P. mirabilis; Proteus mirabilis): 0.2 µg/mL (≈ 0.41 µM)
MIC90 (P. mirabilis; Proteus mirabilis): 0.4 µg/mL (≈ 0.821 µM)
survivors at day 21 postchallenge (Y. pestis [2]): 15 out of 15
colonization of the lymph nodes, spleen, and blood relative to nontreated controls (Y. pestis [2]; iv, 40 mg/kg): significantly (P < 0.02) lower colonization
survival rate (Y. pestis [2]; iv, 40 mg/kg): ≥ 80%
bacterial load in skin, lymph nodes, spleen, and blood of survivors (Y. pestis [2]; iv, 200 mg/kg): sterile
posttreatment relapse (Y. pestis [2]; iv, 200 mg/kg): only one of the 15 animals
MIC Range (Salmonella spp): 0.2 to 0.8 µg/mL
MIC50 (Salmonella spp; Salmonella): 0.4 µg/mL (≈ 0.821 µM)
MIC90 (Salmonella spp; Salmonella): 0.4 µg/mL (≈ 0.821 µM)
MIC Range (Yersinia spp.): 0.2 to 0.8 µg/mL
MIC50 (Yersinia spp.; Yersinia): 0.4 µg/mL (≈ 0.821 µM)
MIC90 (Yersinia spp.; Yersinia): 0.8 µg/mL (≈ 1.64 µM)
MIC90 (Enterobacteriaceae): 0.2 to 0.8 µg/mL (≈ 0.41 to 1.64 µM)
MIC Range (S. marcescens): 0.1 to 0.4 µg/mL
MIC50 (S. marcescens; Serratia marcescens): 0.2 µg/mL (≈ 0.41 µM)
MIC90 (S. marcescens; Serratia marcescens): 0.2 µg/mL (≈ 0.41 µM)
MIC Range (C. freundii): 0.2 to 0.4 µg/mL
MIC50 (C. freundii; Citrobacter freundii): 0.2 µg/mL (≈ 0.41 µM)
MIC90 (C. freundii; Citrobacter freundii): 0.4 µg/mL (≈ 0.821 µM)
MIC Range (E. coli): 0.05 to 0.4 µg/mL
MIC50 (E. coli; Escherichia coli): 0.1 µg/mL (≈ 0.205 µM)
MIC90 (E. coli; Escherichia coli): 0.2 µg/mL (≈ 0.41 µM)
MIC (E. coli; Escherichia coli): 0.1 µg/mL (≈ 0.205 µM)
MIC Range (Enterobacter spp.): 0.1 to 1.6 µg/mL
MIC50 (Enterobacter spp.; Enterobacter): 0.2 µg/mL (≈ 0.41 µM)
MIC90 (Enterobacter spp.; Enterobacter): 0.4 µg/mL (≈ 0.821 µM)
type of antibacterial effect (kill curve) (Y. pestis CO92): bacteriostatic effect
MIC Range (Shigella spp.): 0.025 to 0.2 µg/mL
MIC50 (Shigella spp.; Shigella): 0.05 µg/mL (≈ 0.103 µM)
MIC90 (Shigella spp.; Shigella): 0.1 µg/mL (≈ 0.205 µM)
MIC Range (K. pneumoniae): 0.2 to 0.8 µg/mL
MIC50 (K. pneumoniae; Klebsiella pneumoniae): 0.4 µg/mL (≈ 0.821 µM)
MIC90 (K. pneumoniae; Klebsiella pneumoniae): 0.8 µg/mL (≈ 1.64 µM)
MIC Range (C. koseri): 0.1 to 1.6 µg/mL
MIC50 (C. koseri; Citrobacter koseri): 0.4 µg/mL (≈ 0.821 µM)
MIC90 (C. koseri; Citrobacter koseri): 0.4 µg/mL (≈ 0.821 µM)
MIC90 (A. baumannii): 3.2 µg/mL (≈ 6.56 µM)
MIC50 (A. baumannii; Acinetobacter baumannii): 0.8 µg/mL (≈ 1.64 µM)
MIC90 (A. baumannii; Acinetobacter baumannii): 3.2 µg/mL (≈ 6.56 µM)
half-life ([3]; 40 mg/kg): 10 min
distribution volume ([3]; mouse, single intravenous 40-mg/kg dose): 3.8 L/kg
MIC90 (P. aeruginosa): 3.2 µg/mL (≈ 6.56 µM)
MIC Range (P. aeruginosa): 0.2 to 3.2 µg/mL
more active than ceftazidime-avibactam (P. aeruginosa): 4- to 8 fold
MIC50 (P. aeruginosa; Pseudomonas aeruginosa): 1.6 µg/mL (≈ 3.28 µM)
MIC90 (P. aeruginosa; Pseudomonas aeruginosa): 3.2 µg/mL (≈ 6.56 µM)
half-life at 1 µM [4]: 44 min
microsomal CLint at 1 µM [4]: 52 µL/min/mg
